# Key:
# [1] = test system: PDE4; test: Inhibition of PDE4 activity (method of Bauer and Schwabe, microtiter plates); type: biochemical; settings: inhibitory concentration as −log IC50 (mol/1)
# Description: The activity test can be carried out, for example according to the method of Bauer and Schwabe. For this, the method is adapted to microtiter plates (Naunyn-Schmiedeberg's Arch. Pharmacol. 1980, 311, 193-198). The PDE reaction takes place in the first step here. In a second step, the resulting 5′-nucleotide is cleaved by a 5′-nucloetidase of the snake venom of Crotalus atrox to the uncharged nucleoside. In the third step, the nucleoside is separated from the remaining charged substrate on ion-exchange columns. The columns are eluted directly into minivials, into which 2 ml of scintillator fluid are additionally added for counting, using 2 ml of 30 mM ammonium formate (pH 6.0).
# The inhibitory values determined for the compounds according to the invention [inhibitory concentration as −log IC50 (mol/1)] follow from the following Table A, in which the numbers of the compounds correspond to the numbers of the examples.
smiles,measurement,setting,value
"CCn1nnc(-c2ccc(C3=[N+]([O-])C4CCCCC4c4cc(OC)c(OC)cc43)cc2)n1 (single isomer, unassigned; (-)) [Compound 1, (−)-cis-6-[4-(2-Ethyl-2H-tetrazol-5-yl)phenyl]-8,9-dimethoxy-1,2,3,4,4a,10b-hexahydrophen-anthridine-N-5-oxide]",melting point,,143.5 to 146 °C
same,−log IC50,[1],6.29

# Source: patent US6534519B1, “Phenanthridine-N-oxides with PDE-IV inhibiting activity” (Altana Pharma AG, priority 1999, dated 2003)
